According to patent US10227357B2, “Compounds and methods for kinase modulation, and indications therefor” (Plexxikon Inc., priority 2012, dated 2019):

Key:
c-kit kinase = target: T1, c-kit kinase (Homo sapiens, UniProt P10721); assay: c-Kit biochemical assay, AlphaScreen, 10 μM ATP; details: c-kit biochemical inhibitory activity; read-out: Biochemical activity (IC50 μM) Kit
T1 construct: The c-kit (or kinase domain thereof) is an active kinase in AlphaScreen; poly-Histidine tag (in-house protein only) (cleaved yes); host or cells: E. coli BL21(DE3)RIL, co-expressed with PTP1B
How it was run: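 His-tagged c-Kit expressed in E. coli with co-expressed PTP1B (dephosphorylated), tag removed; 0.1 ng per reaction with biotinylated-peptide substrate in 50 mM HEPES pH 7.2, 5 mM MgCl2, 5 mM MnCl2, 5% DMSO, 10 μM ATP, 1 h at room temperature. Phosphorylation detected by AlphaScreen (streptavidin donor, PY20 acceptor beads); IC50 from 8-point 1:3 dilution series.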

c-kit mutant D816V = target: T2, c-kit mutant D816V (Homo sapiens, UniProt P10721, D816V/DEL694-753); assay: c-Kit mutant D816V biochemical assay, AlphaScreen; details: c-kit D816V biochemical inhibitory activity; read-out: Biochemical activity (IC50 μM) Kit D816V
T2 construct: residues 551-934, kinase insertion domain residues 694-753 deleted; 6x-histidine (N); made in house; host or cells: E. coli Arctic Express (DE3) RIL (Stratagene)
How it was run: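 Purified His-tagged c-Kit D816V (E. coli-expressed) assayed in 25 mM HEPES pH 7.2 with Mg/Mn, 5% DMSO and 10 μM ATP, 30 min at room temperature, 8-point 1:3 dilutions. Phosphorylation detected by AlphaScreen with streptavidin donor and PY20 acceptor beads; IC50 from signal versus concentration.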

T1 sequence (P10721 26-976): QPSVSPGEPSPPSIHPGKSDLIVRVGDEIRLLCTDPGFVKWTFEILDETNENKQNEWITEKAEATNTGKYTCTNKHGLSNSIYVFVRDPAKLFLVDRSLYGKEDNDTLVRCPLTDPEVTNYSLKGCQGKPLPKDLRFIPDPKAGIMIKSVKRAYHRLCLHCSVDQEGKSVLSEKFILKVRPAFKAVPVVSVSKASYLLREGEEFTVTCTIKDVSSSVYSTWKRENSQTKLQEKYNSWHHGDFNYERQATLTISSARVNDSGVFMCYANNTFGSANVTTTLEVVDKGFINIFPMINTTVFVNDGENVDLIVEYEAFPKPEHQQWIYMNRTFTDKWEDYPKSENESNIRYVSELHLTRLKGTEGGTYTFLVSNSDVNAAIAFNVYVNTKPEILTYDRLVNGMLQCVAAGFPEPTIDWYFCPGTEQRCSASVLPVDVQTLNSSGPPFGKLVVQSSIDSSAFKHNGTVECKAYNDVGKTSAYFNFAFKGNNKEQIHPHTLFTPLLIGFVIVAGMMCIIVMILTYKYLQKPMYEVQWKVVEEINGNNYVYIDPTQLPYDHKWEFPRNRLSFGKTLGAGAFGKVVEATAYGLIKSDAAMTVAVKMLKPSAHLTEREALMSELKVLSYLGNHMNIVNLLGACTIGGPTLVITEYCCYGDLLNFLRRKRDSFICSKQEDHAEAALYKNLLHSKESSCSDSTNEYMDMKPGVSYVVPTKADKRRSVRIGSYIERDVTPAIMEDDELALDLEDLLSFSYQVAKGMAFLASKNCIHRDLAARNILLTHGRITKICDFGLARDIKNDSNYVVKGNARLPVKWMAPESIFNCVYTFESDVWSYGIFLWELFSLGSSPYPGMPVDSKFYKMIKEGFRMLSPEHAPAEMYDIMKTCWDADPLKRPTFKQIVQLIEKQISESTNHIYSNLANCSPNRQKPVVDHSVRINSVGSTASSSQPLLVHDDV
T2 sequence (P10721 with tags, fused parts or gaps DEL694-753/D816V): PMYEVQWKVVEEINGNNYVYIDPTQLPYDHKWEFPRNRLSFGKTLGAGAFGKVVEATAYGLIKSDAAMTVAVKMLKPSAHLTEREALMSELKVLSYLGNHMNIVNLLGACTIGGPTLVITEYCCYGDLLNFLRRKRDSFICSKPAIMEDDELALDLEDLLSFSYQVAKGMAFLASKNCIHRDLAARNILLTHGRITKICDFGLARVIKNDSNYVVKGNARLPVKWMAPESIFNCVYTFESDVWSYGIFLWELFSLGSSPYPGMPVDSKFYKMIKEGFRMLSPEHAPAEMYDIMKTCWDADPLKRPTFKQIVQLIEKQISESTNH

| Compound | IC50 (c-kit kinase) | IC50 (c-kit mutant D816V) |
| --- | --- | --- |
| Cc1cc2c(-c3ccc(NS(=O)(=O)c4ccc(Cl)cc4F)cc3F)ncnc2[nH]1 [P-0352, 4-chloro-2-fluoro-N-[3-fluoro-4-(6-methyl-7H-pyrrolo[2,3-d]pyrimidin-4-yl)phenyl]benzenesulfonamide] | 0.0001 to 1 µM | 1 to 10 µM |
| CS(=O)(=O)Nc1ccc(-c2ncnc3[nH]c(-c4ccc(F)cc4)cc23)c(F)c1F [P-0353, N-[2,3-difluoro-4-[6-(4-fluorophenyl)-7H-pyrrolo[2,3-d]pyrimidin-4-yl]phenyl]methanesulfonamide] | 1 to 10 µM | 0.0001 to 1 µM |
| O=S(=O)(NCc1ccc(F)cc1)c1ccc(-c2ncnc3[nH]c(-c4ccc(F)cc4)cc23)c(F)c1 [P-0354, 3-fluoro-N-[(4-fluorophenyl)methyl]-4-[6-(4-fluorophenyl)-7H-pyrrolo[2,3-d]pyrimidin-4-yl]benzenesulfonamide] | 10 to 200 µM | 0.0001 to 1 µM |
| Cc1cc2c(-c3ccc(NS(=O)(=O)c4cccc(Cl)c4)cc3F)ncnc2[nH]1 [P-0357, 3-chloro-N-[3-fluoro-4-(6-methyl-7H-pyrrolo[2,3-d]pyrimidin-4-yl)phenyl]benzenesulfonamide] | 1 to 10 µM | 1 to 10 µM |
| Cc1cc2c(-c3ccc(NS(=O)(=O)c4cccc(F)c4)cc3F)ncnc2[nH]1 [P-0358, 3-fluoro-N-[3-fluoro-4-(6-methyl-7H-pyrrolo[2,3-d]pyrimidin-4-yl)phenyl]benzenesulfonamide] | 1 to 10 µM | 1 to 10 µM |
| Cc1cc2c(-c3ccc(NS(=O)(=O)c4ccc(OC(F)F)cc4)c(F)c3)ncnc2[nH]1 [P-0360, 4-(difluoromethoxy)-N-[2-fluoro-4-(6-methyl-7H-pyrrolo[2,3-d]pyrimidin-4-yl)phenyl]benzenesulfonamide] | 1 to 10 µM | 10 to 200 µM |
| Cc1cc2c(-c3ccc(NS(=O)(=O)c4ccc(Cl)cc4F)c(F)c3)ncnc2[nH]1 [P-0361, 4-chloro-2-fluoro-N-[2-fluoro-4-(6-methyl-7H-pyrrolo[2,3-d]pyrimidin-4-yl)phenyl]benzenesulfonamide] | 0.0001 to 1 µM | 1 to 10 µM |
| Cc1cc2c(-c3ccc(NS(=O)(=O)c4ccc(F)cc4)cc3F)ncnc2[nH]1 [P-0362, 4-fluoro-N-[3-fluoro-4-(6-methyl-7H-pyrrolo[2,3-d]pyrimidin-4-yl)phenyl]benzenesulfonamide] | 1 to 10 µM | 0.0001 to 1 µM |
| COc1ccc(S(=O)(=O)Nc2ccc(-c3ncnc4[nH]c(C)cc34)c(F)c2)cc1 [P-0363, N-[3-fluoro-4-(6-methyl-7H-pyrrolo[2,3-d]pyrimidin-4-yl)phenyl]-4-methoxy-benzenesulfonamide] | 1 to 10 µM | 1 to 10 µM |
| Cc1cc2c(-c3ccc(NS(=O)(=O)c4cccc(Cl)c4F)cc3F)ncnc2[nH]1 [P-0364, 3-chloro-2-fluoro-N-[3-fluoro-4-(6-methyl-7H-pyrrolo[2,3-d]pyrimidin-4-yl)phenyl]benzenesulfonamide] | 10 to 200 µM | 10 to 200 µM |
| Cc1cc2c(-c3ccc(NS(=O)(=O)c4ccc(C)c(F)c4)cc3F)ncnc2[nH]1 [P-0365, 3-fluoro-N-[3-fluoro-4-(6-methyl-7H-pyrrolo[2,3-d]pyrimidin-4-yl)phenyl]-4-methyl-benzenesulfonamide] | 10 to 200 µM | 1 to 10 µM |
| Cc1cc2c(-c3ccc(NS(=O)(=O)c4ccc(OC(F)F)cc4)cc3F)ncnc2[nH]1 [P-0366, 4-(difluoromethoxy)-N-[3-fluoro-4-(6-methyl-7H-pyrrolo[2,3-d]pyrimidin-4-yl)phenyl]benzenesulfonamide] | 1 to 10 µM | 1 to 10 µM |
| [2H]C([2H])([2H])S(=O)(=O)Nc1ccc(-c2ncnc3[nH]c(-c4ccc(F)cc4)cc23)cc1F [P-0367, 1,1,1-trideuterio-N-[2-fluoro-4-[6-(4-fluorophenyl)-7H-pyrrolo[2,3-d]pyrimidin-4-yl]phenyl]methanesulfonamide] | 10 to 200 µM | 0.0001 to 1 µM |
| [2H]C([2H])([2H])S(=O)(=O)Nc1ccc(-c2ncnc3[nH]c(-c4ccc(F)cc4)cc23)c(F)c1 [P-0368, 1,1,1-trideuterio-N-[3-fluoro-4-[6-(4-fluorophenyl)-7H-pyrrolo[2,3-d]pyrimidin-4-yl]phenyl]methanesulfonamide] | 0.0001 to 1 µM | 0.0001 to 1 µM |
| O=S(=O)(NCC1CC1)c1ccc(-c2ncnc3[nH]c(-c4ccc(F)cc4)cc23)c(F)c1 [P-0369, N-(cyclopropylmethyl)-3-fluoro-4-[6-(4-fluorophenyl)-7H-pyrrolo[2,3-d]pyrimidin-4-yl]benzenesulfonamide] | 10 to 200 µM | 1 to 10 µM |
| Cc1cc2c(-c3ccc(NS(C)(=O)=O)cc3)ncnc2[nH]1 [P-0379, N-[4-(6-methyl-7H-pyrrolo[2,3-d]pyrimidin-4-yl)phenyl]methanesulfonamide] | 10 to 200 µM | 1 to 10 µM |
| CCS(=O)(=O)Nc1ccc(-c2ncnc3[nH]c(-c4ccc(F)cc4)cc23)c(F)c1 [P-0381, N-[3-fluoro-4-[6-(4-fluorophenyl)-7H-pyrrolo[2,3-d]pyrimidin-4-yl]phenyl]ethanesulfonamide] | 0.0001 to 1 µM | 0.0001 to 1 µM |
| CS(=O)(=O)Nc1ccc(-c2cc3c(-c4ccc(NS(C)(=O)=O)cc4F)ncnc3[nH]2)c(F)c1 [P-0382, N-[3-fluoro-4-[4-[2-fluoro-4-(methanesulfonamido)phenyl]-7H-pyrrolo[2,3-d]pyrimidin-6-yl]phenyl]methanesulfonamide] | 0.0001 to 1 µM | 0.0001 to 1 µM |
| O=S(=O)(Nc1ccc(-c2cc3c(-c4ccc(NS(=O)(=O)C5CC5)cc4F)ncnc3[nH]2)c(F)c1)C1CC1 [P-0387, N-[4-[4-[4-(cyclopropylsulfonylamino)-2-fluoro-phenyl]-7H-pyrrolo[2,3-d]pyrimidin-6-yl]-3-fluoro-phenyl]cyclopropanesulfonamide] | 1 to 10 µM | 0.0001 to 1 µM |
| CCCCS(=O)(=O)Nc1ccc(-c2cc3c(-c4ccc(NS(=O)(=O)CCCC)cc4)ncnc3[nH]2)cc1 [P-0388, N-[4-[4-[4-(butylsulfonylamino)phenyl]-7H-pyrrolo[2,3-d]pyrimidin-6-yl]phenyl]butane-1-sulfonamide] | 10 to 200 µM | 0.0001 to 1 µM |
| O=S(=O)(Nc1ccc(-c2cc3c(-c4ccc(NS(=O)(=O)C5CC5)cc4)ncnc3[nH]2)cc1)C1CC1 [P-0389, N-[4-[4-[4-(cyclopropylsulfonylamino)phenyl]-7H-pyrrolo[2,3-d]pyrimidin-6-yl]phenyl]cyclopropanesulfonamide] | 1 to 10 µM | 0.0001 to 1 µM |
| Cc1ccc(S(=O)(=O)Nc2ccc(-c3ncnc4[nH]c(C)cc34)cc2)cc1 [P-0390, 4-methyl-N-[4-(6-methyl-7H-pyrrolo[2,3-d]pyrimidin-4-yl)phenyl]benzenesulfonamide] | 1 to 10 µM | 0.0001 to 1 µM |
| O=S(=O)(Nc1ccc(-c2ncnc3[nH]c(-c4ccc(F)cc4)cc23)c(F)c1)c1ccc(Cl)cc1 [P-0396, 4-chloro-N-[3-fluoro-4-[6-(4-fluorophenyl)-7H-pyrrolo[2,3-d]pyrimidin-4-yl]phenyl]benzenesulfonamide] | 10 to 200 µM | 0.0001 to 1 µM |
| CCCS(=O)(=O)Nc1ccc(-c2ncnc3[nH]c(-c4ccc(F)cc4)cc23)c(F)c1 [P-0397, N-[3-fluoro-4-[6-(4-fluorophenyl)-7H-pyrrolo[2,3-d]pyrimidin-4-yl]phenyl]propane-1-sulfonamide] | 1 to 10 µM | 0.0001 to 1 µM |
| CS(=O)(=O)Nc1ccc(-c2ncnc3[nH]c(-c4ccc(F)cc4)cc23)c(F)c1 [P-0398, N-[3-fluoro-4-[6-(4-fluorophenyl)-7H-pyrrolo[2,3-d]pyrimidin-4-yl]phenyl]methanesulfonamide] | 0.0001 to 1 µM | 0.0001 to 1 µM |
| CS(=O)(=O)Nc1ccc(-c2ncnc3[nH]c(-c4ccc(F)cc4)cc23)cc1F [P-0399, N-[2-fluoro-4-[6-(4-fluorophenyl)-7H-pyrrolo[2,3-d]pyrimidin-4-yl]phenyl]methanesulfonamide] | 0.0001 to 1 µM | 0.0001 to 1 µM |
| O=S(=O)(Nc1ccc(-c2ncnc3[nH]c(-c4ccc(F)cc4)cc23)c(F)c1)C1CC1 [P-0401, N-[3-fluoro-4-[6-(4-fluorophenyl)-7H-pyrrolo[2,3-d]pyrimidin-4-yl]phenyl]cyclopropanesulfonamide] | 10 to 200 µM | 0.0001 to 1 µM |
| COc1ccc(S(=O)(=O)Nc2ccc(-c3ncnc4[nH]c(-c5ccc(F)cc5)cc34)c(F)c2)cc1 [P-0402, N-[3-fluoro-4-[6-(4-fluorophenyl)-7H-pyrrolo[2,3-d]pyrimidin-4-yl]phenyl]-4-methoxy-benzenesulfonamide] | 1 to 10 µM | 0.0001 to 1 µM |
| CCCS(=O)(=O)Nc1ccc(-c2ncnc3[nH]c(-c4ccc(F)cc4)cc23)cc1F [P-0403, N-[2-fluoro-4-[6-(4-fluorophenyl)-7H-pyrrolo[2,3-d]pyrimidin-4-yl]phenyl]propane-1-sulfonamide] | 0.0001 to 1 µM | 0.0001 to 1 µM |
| O=S(=O)(Nc1ccc(-c2ncnc3[nH]c(-c4ccc(F)cc4)cc23)cc1)c1ccc(F)cc1 [P-0404, 4-fluoro-N-[4-[6-(4-fluorophenyl)-7H-pyrrolo[2,3-d]pyrimidin-4-yl]phenyl]benzenesulfonamide] | 0.0001 to 1 µM | 0.0001 to 1 µM |
